Series [1] is described as follows: Metabolic stability in potassium oxonate treated Sprague-Dawley rat hyperuricemic model blood assessed as compound remaining at 22 to 30 MBq, iv after 30 mins by radiometric HPLC analysis. It is filed as ADME, organism-based. The following applies: read-out: Stability.
Another series relates to Rattus norvegicus. Nature of the series: Ratio of drug uptake in potassium oxonate treated Sprague-Dawley rat hyperuricemic model at 22 to 30 MBq, iv after 60 mins to drug uptake in normal rat. The format is ADME, organism-based. The following applies: in vivo, 1 h.
For series [2], the system named is Blood. Nature of the series: Ratio of drug uptake in potassium oxonate treated Sprague-Dawley rat hyperuricemic model blood at 22 to 30 MBq, iv after 65 to 70 mins to drug uptake in normal rat. The following applies: in vivo. The format is ADME, organism-based.
Series [3] is described as follows: Drug uptake in potassium oxonate treated Sprague-Dawley rat hyperuricemic model limb at 22 to 30 MBq, iv after 65 to 70 mins by PET analysis. It is filed as ADME, organism-based. Particulars: in vivo; call rule not given here.
Series [4] concerns Blood. Nature of the series: Metabolic stability in Sprague-Dawley rat blood assessed as formation of [11C][…] metabolite at 22 to 30 MBq, iv after 30 mins by radiometric HPLC analysis. The following applies: in vivo, 0.5 h. The format is ADME, organism-based.
Series [5] relates to Blood. Nature of the series: Drug uptake in potassium oxonate treated Sprague-Dawley rat hyperuricemic model blood at 22 to 30 MBq, iv after 60 mins by gamma counting. The following applies: in vivo, 1 h.

Experimental findings from ChEMBL document CHEMBL1949588, “Synthesis of [¹¹C]uric acid, using [¹¹C]phosgene, as a possible biomarker in PET imaging for diagnosis of gout” (Bioorg Med Chem Lett, 2012) are described below.

With `O=c1[nH]c(=O)c2[nH][11c](=O)[nH]c2[nH]1`, in series [1], the remaining at 0.5 h was 100%. Besides, the results for the Ratio in the series on Rattus norvegicus and in the series on Blood [2] were 1.7 and 1.6, respectively. Moreover, the results for the Drug uptake result (in series [3]; in the series on Blood [5]) were “Active” and 0.57 %ID, respectively. Moreover, the Stability result in the series with Blood [4] is “Unstable”.
